Columns and labels:
[1] = tested on: CTB-1 (B-Cell Non-Hodgkin's Lymphoma); assay: combination Emax (second highest fraction inhibited in the dose matrix, 72 h); higher = more inhibition; extreme values may be limits of the assay
In short: (§1)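 Bliss excess equals the observed combination effect minus the expected value EA + EB − EA·EB, where EA and EB are the effects of each agent alone. Combination Emax is the second-highest inhibition within the matrix. Inhibition was scaled from CellTiter-Glo 2.0 luminescence, with 0 set by vehicle wells and 1 by blank wells, after 72 hours of two-drug dosing of cells plated in 1536-well plates.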

[2] = tested on: SW626 (Colorectal Carcinoma); assay: as above
In short: as §1

[3] = tested on: CAL-54 (Kidney Carcinoma); assay: as above
In short: as §1

RH-18 (Rhabdomyosarcoma) [4] = assay: as above
In short: as §1

NCI-H2795 (Mesothelioma) = assay: as above
In short: as §1

[5] = tested on: K5 (Thyroid Gland Carcinoma); assay: as above
In short: as §1

[6] = tested on: LU-139 (Small Cell Lung Carcinoma); assay: as above
In short: as §1

NCI-H2461 (Mesothelioma) = assay: as above
In short: as §1

SIMA (Neuroblastoma) [7] = assay: as above
In short: as §1

[8] = tested on: PCI-30 (Head and Neck Carcinoma); assay: as above
In short: as §1

RH-18 (Rhabdomyosarcoma) [9] = assay: Bliss excess, mean over the matrix (fraction); higher = more synergy
In short: as §1

SIMA (Neuroblastoma) [10] = assay: as above
In short: as §1

| SMILES | combination Emax [1] | combination Emax [2] | combination Emax [3] | combination Emax (RH-18 (Rhabdomyosarcoma) [4]) | combination Emax (NCI-H2795 (Mesothelioma)) | combination Emax [5] | combination Emax [6] | combination Emax (NCI-H2461 (Mesothelioma)) | combination Emax (SIMA (Neuroblastoma) [7]) | combination Emax [8] | Bliss excess (RH-18 (Rhabdomyosarcoma) [9]) | Bliss excess (SIMA (Neuroblastoma) [10]) |
| --- | --- | --- | --- | --- | --- | --- | --- | --- | --- | --- | --- | --- |
| CN(C)CCCOc1ccc(-c2ccc3ncc4c(c3c2)n(C2CCOCC2)c(=O)n4C)cn1 [AZD0156] + C=CCn1c(=O)c2cnc(Nc3ccc(N4CCN(C)CC4)cc3)nc2n1-c1cccc(C(C)(C)O)n1 [AZD1775] (first compound max 1 µM, partner max 1 µM) | 0.898 | 0.508 | 0.642 | 0.337 | 0.512 | 0.424 | 0.59 | 0.674 | 0.873 | 0.265 | -0.0645 | -0.006 |
| CN(C)CCCOc1ccc(-c2ccc3ncc4c(c3c2)n(C2CCOCC2)c(=O)n4C)cn1 [AZD0156] + CCN(CCO)CCCOc1ccc2c(Nc3cc(CC(=O)Nc4cccc(F)c4)[nH]n3)ncnc2c1 [AZD2811] (first compound max 1 µM, 7x7, partner max 1 µM) | 0.501 | 0.0884 | 0.134 | 0.136 | 0.291 | 0.244 | 0.279 | 0.195 | 0.131 | 0.192 | -0.0253 | -0.0085 |
| CN(C)CCCOc1ccc(-c2ccc3ncc4c(c3c2)n(C2CCOCC2)c(=O)n4C)cn1 [AZD0156] + C[C@@H]1COCCN1C2=NC(=NC(=C2)C3(CC3)[S@](=N)(=O)C)C4=C5C=CNC5=NC=C4 [AZD6738] (first compound max 1 µM, 7x7, partner max 10 µM) | 0.829 | 0.566 | 0.65 | 0.343 | 0.7 | 0.753 | 0.278 | 0.71 | 0.9 | 0.659 | -0.0312 | 0.074 |
| C=CCn1c(=O)c2cnc(Nc3ccc(N4CCN(C)CC4)cc3)nc2n1-c1cccc(C(C)(C)O)n1 [AZD1775] + C[C@@H]1COCCN1C2=NC(=NC(=C2)C3(CC3)[S@](=N)(=O)C)C4=C5C=CNC5=NC=C4 [AZD6738] (first compound max 1 µM, partner max 10 µM) | 0.944 | 0.743 | 0.759 | 0.625 | 0.803 | 0.749 | 0.721 | 0.764 | 0.906 | 0.696 | -0.0014 | 0.0547 |
| C=CCn1c(=O)c2cnc(Nc3ccc(N4CCN(C)CC4)cc3)nc2n1-c1cccc(C(C)(C)O)n1 [AZD1775] + O=C(c1cc(Cc2n[nH]c(=O)c3ccccc23)ccc1F)N1CCN(C(=O)C2CC2)CC1 [Olaparib] (first compound max 1 µM, partner max 10 µM) | 0.879 | 0.573 | 0.679 | 0.401 | 0.57 | 0.528 | 0.636 | 0.649 | 0.721 | 0.374 | -0.0018 | 0.0028 |
| CCN(CCO)CCCOc1ccc2c(Nc3cc(CC(=O)Nc4cccc(F)c4)[nH]n3)ncnc2c1 [AZD2811] + C=CCn1c(=O)c2cnc(Nc3ccc(N4CCN(C)CC4)cc3)nc2n1-c1cccc(C(C)(C)O)n1 [AZD1775] (first compound max 1 µM, partner max 1 µM) | 0.876 | 0.427 | 0.622 | 0.245 | 0.441 | 0.507 | 0.567 | 0.638 | 0.855 | 0.344 | -0.0471 | -0.0113 |
| CCN(CCO)CCCOc1ccc2c(Nc3cc(CC(=O)Nc4cccc(F)c4)[nH]n3)ncnc2c1 [AZD2811] + C[C@@H]1COCCN1C2=NC(=NC(=C2)C3(CC3)[S@](=N)(=O)C)C4=C5C=CNC5=NC=C4 [AZD6738] (first compound max 1 µM, 7x7, partner max 10 µM) | 0.751 | 0.581 | 0.666 | 0.344 | 0.674 | 0.635 | 0.299 | 0.739 | 0.766 | 0.581 | -0.0336 | -0.0332 |
| CCN(CCO)CCCOc1ccc2c(Nc3cc(CC(=O)Nc4cccc(F)c4)[nH]n3)ncnc2c1 [AZD2811] + O=C(c1cc(Cc2n[nH]c(=O)c3ccccc23)ccc1F)N1CCN(C(=O)C2CC2)CC1 [Olaparib] (first compound max 1 µM, 7x7, partner max 10 µM) | 0.515 | 0.213 | 0.223 | 0.257 | 0.395 | 0.329 | 0.307 | 0.278 | 0.213 | 0.265 | 0.0097 | 0.0206 |
| Cc1c2c(nn1C)CSCc1cc(n(C)n1)CSc1cc(c3ccccc3c1)OCCCc1c(C(=O)O)n(C)c3c-2c(Cl)ccc13 [AZD5991] + CC1(C)CCC(CN2CCN(c3ccc(C(=O)NS(=O)(=O)c4ccc(NCC5CCOCC5)c([N+](=O)[O-])c4)c(Oc4cnc5[nH]ccc5c4)c3)CC2)=C(c2ccc(Cl)cc2)C1 [Venetoclax] (first compound max 1 µM, 7x7, partner max 1 µM) | 0.17 | 0.205 | 0.163 |  | 0.793 | 0.183 | 0.777 | 0.181 | 0.46 | 0.218 |  | 0.107 |
| Cc1c2c(nn1C)CSCc1cc(n(C)n1)CSc1cc(c3ccccc3c1)OCCCc1c(C(=O)O)n(C)c3c-2c(Cl)ccc13 [AZD5991] + CCN(CCO)CCCOc1ccc2c(Nc3cc(CC(=O)Nc4cccc(F)c4)[nH]n3)ncnc2c1 [AZD2811] (first compound max 1 µM, 7x7, partner max 1 µM) | 0.641 | 0.325 | 0.234 |  | 0.762 | 0.298 | 0.409 | 0.335 | 0.768 | 0.284 |  | -0.0271 |
| Cc1c2c(nn1C)CSCc1cc(n(C)n1)CSc1cc(c3ccccc3c1)OCCCc1c(C(=O)O)n(C)c3c-2c(Cl)ccc13 [AZD5991] + CN(C)CCCOc1ccc(-c2ccc3ncc4c(c3c2)n(C2CCOCC2)c(=O)n4C)cn1 [AZD0156] (first compound max 1 µM, 7x7, partner max 1 µM) | 0.34 | 0.223 | 0.263 |  | 0.812 | 0.183 | 0.21 | 0.307 | 0.398 | 0.232 |  | 0.0197 |
| Cc1c2c(nn1C)CSCc1cc(n(C)n1)CSc1cc(c3ccccc3c1)OCCCc1c(C(=O)O)n(C)c3c-2c(Cl)ccc13 [AZD5991] + C[C@@H]1COCCN1C2=NC(=NC(=C2)C3(CC3)[S@](=N)(=O)C)C4=C5C=CNC5=NC=C4 [AZD6738] (first compound max 1 µM, 7x7, partner max 10 µM) | 0.785 | 0.632 | 0.706 |  | 0.939 | 0.574 | 0.446 | 0.765 | 0.98 | 0.603 |  | 0.024 |
| Cc1c2c(nn1C)CSCc1cc(n(C)n1)CSc1cc(c3ccccc3c1)OCCCc1c(C(=O)O)n(C)c3c-2c(Cl)ccc13 [AZD5991] + C[C@@H](Nc1cc(F)cc(F)c1)c1cc(C(=O)N(C)C)cc2c(=O)cc(N3CCOCC3)oc12 [AZD8186] (first compound max 1 µM, 7x7, partner max 3 µM) | 0.384 | 0.223 | 0.602 |  | 0.926 | 0.362 | 0.174 | 0.363 | 0.218 | 0.264 |  | -0.0084 |
| Cc1c2c(nn1C)CSCc1cc(n(C)n1)CSc1cc(c3ccccc3c1)OCCCc1c(C(=O)O)n(C)c3c-2c(Cl)ccc13 [AZD5991] + Cn1cnc2c(F)c(Nc3ccc(Br)cc3Cl)c(C(=O)NOCCO)cc21 [Selumetinib] (first compound max 1 µM, 7x7, partner max 3 µM) | 0.203 | 0.528 | 0.28 |  | 0.971 | 0.739 | 0.148 | 0.359 | 0.516 | 0.198 |  | 0.0879 |
| C[C@@H]1COCCN1c1cc(C2([S@](C)(=N)=O)CC2)nc(-c2ccnc3[nH]ccc23)n1 [AZD6738] + O=C(c1cc(Cc2n[nH]c(=O)c3ccccc23)ccc1F)N1CCN(C(=O)C2CC2)CC1 [Olaparib] (first compound max 10 µM, 7x7, partner max 10 µM) | 0.777 | 0.455 | 0.658 | 0.406 | 0.745 | 0.627 | 0.418 | 0.703 | 0.642 | 0.538 | 0.012 | -0.0498 |
| Cc1cc2ncnn2cc1Nc1ncc2c(n1)n(C1CCOCC1)c(=O)n2C [AZD7648] + C=CCn1c(=O)c2cnc(Nc3ccc(N4CCN(C)CC4)cc3)nc2n1-c1cccc(C(C)(C)O)n1 [AZD1775] (first compound max 10 µM, partner max 1 µM) | 0.905 | 0.513 | 0.755 | 0.426 | 0.602 | 0.665 | 0.615 | 0.659 | 0.941 | 0.375 | 0.0278 | 0.0406 |
| Cc1cc2ncnn2cc1Nc1ncc2c(n1)n(C1CCOCC1)c(=O)n2C [AZD7648] + CCN(CCO)CCCOc1ccc2c(Nc3cc(CC(=O)Nc4cccc(F)c4)[nH]n3)ncnc2c1 [AZD2811] (first compound max 10 µM, 7x7, partner max 1 µM) | 0.697 | 0.25 | 0.443 | 0.333 | 0.45 | 0.571 | 0.397 | 0.468 | 0.532 | 0.318 | 0.0148 | 0.0728 |
| COc1cccc(OCCCN)c1-c1cc(Nc2cnc(C#N)cn2)n[nH]1 [Prexasertib] + CCc1c2c(nc3ccc(O)cc13)-c1cc3c(c(=O)n1C2)COC(=O)[C@]3(O)CC [SN-38] (first compound max 1 µM, 7x7, partner max 0.3 µM) | 0.934 | 0.819 | 0.855 | 0.689 | 0.813 | 0.628 | 0.899 | 0.705 |  | 0.966 | -0.0464 |  |
| CCc1c2c(nc3ccc(O)cc13)-c1cc3c(c(=O)n1C2)COC(=O)[C@]3(O)CC [SN-38] + O=C(c1cc(Cc2n[nH]c(=O)c3ccccc23)ccc1F)N1CCN(C(=O)C2CC2)CC1 [Olaparib] (first compound max 0.3 µM, 7x7, partner max 10 µM) | 0.837 | 0.559 | 0.788 | 0.76 | 0.771 | 0.505 | 0.767 | 0.639 |  | 0.727 | 0.0899 |  |
